# Data: publication PMC9780888, “4-Isobutylmethcathinone—A Novel Synthetic Cathinone with High In Vitro Cytotoxicity and Strong Receptor Binding Preference of Enantiomers” (Pharmaceuticals, 2022)
# Structures can show the parent of a compound that is named as a salt.
# System: HMC-3
# Test: WST-1 viability assay, HMC-3 cells
# Type: cell-based, human
# Conditions: HMC-3, 72 h incubation, WST-1, four replicates
# Method: Based on the novelty of the IMBcat compound, we aimed to evaluate its in vitro cytotoxicity in selected model cell lines as well as to determine the toxicity of the IBMcat enantiomers, since both the chemical structure and chirality of compounds could play a role in their bioactivity (Table 2). The cytotoxic profile of the IBMcat was determined by a WST-1 viability assay after 72-h treatment. For this purpose, cell lines derived from distinct tissues, often affected by NPSs, were chosen, i.e., cells of kidney, hepatic, neural, urinary, and intestinal origin as well as keratinocytes and primary fibroblasts (HEK 293T, Hep G2, HMC-3, SH-SY5Y, 5637, CaCo-2, HaCaT, MRC-5, and BJ, respectively). The cytotoxicity of IBMcat and its enantiomers was concentration- and cell-line dependent, the IC50 values, which were in the micromolar range, are given in Table 2. […] This was followed by embryonic kidney cells HEK 293T (immortalized), in which the toxicity ranged between a concentration of 123 and 192 µM.
# In this study, the following cell lines were used: HEK 293T, Hep G2, HMC-3, SH-SY5Y, 5637, CaCo-2, HaCaT, MRC-5, BJ, and L929. […] The selected cell lines were chosen so that not only primary noncancerous cells are evaluated but also cells derived from tissues, which are the most often affected by novel synthetic drugs, i.e., kidney, liver, urinary bladder, and nervous tissue. […]
# The cytotoxicity of IBMCat was evaluated in vitro by using a WST-1 viability assay (Sigma-Aldrich, Saint Louis, MO, USA) based on the transformation of a tetrazolium salt into colored formazan in metabolically active cells. […] After 72 h of additional incubation of the cells, their viability was determined by WST-1. […] The cells were incubated for 2 h, after which absorbance of the raised formazan was measured spectrophotometrically at 450 nm (reference wavelength of 630 nm) using a UV-Vis spectrometer (Bio-Rad Laboratories, Hercules, CA, USA). […] The half-maximal inhibitory concentrations (IC50) were calculated from the measured dose–response curves by AAT Bioquest.
Structure (SMILES),"IC50 (Homo sapiens, HMC3)",IC50
"CNC(C)C(=O)c1ccc(CC(C)C)cc1.Cl (stereo not drawn) [IBMcat, 4-isobutylmethcathinone hydrochloride]",61 ± 2 µM,
"CN[C@@H](C)C(=O)c1ccc(CC(C)C)cc1 [S-IBMCat, (S)-4-isobutylmethcathinone hydrochloride]",64 ± 1 µM,
CN[C@H](C)C(=O)c1ccc(CC(C)C)cc1 [R-IBMCat],,65 ± 2 µM
